Legend:
Conditions in all cases: binder
CHK2 = CHK2 (Homo sapiens, UniProt O96017)
FGFR2 = FGFR2 (Homo sapiens, UniProt P21802)
MSK1b = MSK1b (Homo sapiens, UniProt O75582)
AAK1 = AAK1 (Homo sapiens, UniProt Q2M2I8)
ABL1 = ABL1 (Homo sapiens, UniProt P00519)
CK1d = CK1d (Homo sapiens, UniProt P48730)
MAPKAPK2 = MAPKAPK2 (Homo sapiens, UniProt P49137)
MSSK1 = MSSK1 (Homo sapiens, UniProt Q9UPE1)
MAP2K7 = target: T1, MAP2K7 (Homo sapiens, UniProt O14733)
T1 sequence (O14733 1-419): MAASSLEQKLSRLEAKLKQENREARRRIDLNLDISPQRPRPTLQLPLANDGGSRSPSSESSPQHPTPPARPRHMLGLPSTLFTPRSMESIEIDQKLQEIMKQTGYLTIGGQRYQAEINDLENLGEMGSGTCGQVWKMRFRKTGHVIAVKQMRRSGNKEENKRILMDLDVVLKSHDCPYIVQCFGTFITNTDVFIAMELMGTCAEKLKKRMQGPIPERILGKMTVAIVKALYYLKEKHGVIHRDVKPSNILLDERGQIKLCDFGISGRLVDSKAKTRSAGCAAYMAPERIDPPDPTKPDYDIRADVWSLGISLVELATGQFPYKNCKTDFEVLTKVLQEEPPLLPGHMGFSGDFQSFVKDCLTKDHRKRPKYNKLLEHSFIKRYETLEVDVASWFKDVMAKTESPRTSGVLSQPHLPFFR

CaMK4 = target: T2, CaMK4 (Homo sapiens, UniProt Q16566)
T2 sequence (Q16566 1-473): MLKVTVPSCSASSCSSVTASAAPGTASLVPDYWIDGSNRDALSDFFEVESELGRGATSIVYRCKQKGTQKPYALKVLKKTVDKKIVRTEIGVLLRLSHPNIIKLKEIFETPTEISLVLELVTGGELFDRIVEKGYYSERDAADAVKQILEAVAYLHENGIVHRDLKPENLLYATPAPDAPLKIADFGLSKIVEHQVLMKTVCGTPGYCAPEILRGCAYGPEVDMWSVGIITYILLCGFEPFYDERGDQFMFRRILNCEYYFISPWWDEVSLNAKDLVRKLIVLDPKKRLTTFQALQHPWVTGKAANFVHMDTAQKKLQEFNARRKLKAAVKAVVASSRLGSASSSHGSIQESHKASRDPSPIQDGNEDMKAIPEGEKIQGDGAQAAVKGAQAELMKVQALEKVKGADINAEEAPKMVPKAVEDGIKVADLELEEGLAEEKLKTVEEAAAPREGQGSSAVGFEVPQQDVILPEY

BRPF1 = target: T3, BRPF1 (Homo sapiens, UniProt P55201)
T3 sequence (P55201 1-1214): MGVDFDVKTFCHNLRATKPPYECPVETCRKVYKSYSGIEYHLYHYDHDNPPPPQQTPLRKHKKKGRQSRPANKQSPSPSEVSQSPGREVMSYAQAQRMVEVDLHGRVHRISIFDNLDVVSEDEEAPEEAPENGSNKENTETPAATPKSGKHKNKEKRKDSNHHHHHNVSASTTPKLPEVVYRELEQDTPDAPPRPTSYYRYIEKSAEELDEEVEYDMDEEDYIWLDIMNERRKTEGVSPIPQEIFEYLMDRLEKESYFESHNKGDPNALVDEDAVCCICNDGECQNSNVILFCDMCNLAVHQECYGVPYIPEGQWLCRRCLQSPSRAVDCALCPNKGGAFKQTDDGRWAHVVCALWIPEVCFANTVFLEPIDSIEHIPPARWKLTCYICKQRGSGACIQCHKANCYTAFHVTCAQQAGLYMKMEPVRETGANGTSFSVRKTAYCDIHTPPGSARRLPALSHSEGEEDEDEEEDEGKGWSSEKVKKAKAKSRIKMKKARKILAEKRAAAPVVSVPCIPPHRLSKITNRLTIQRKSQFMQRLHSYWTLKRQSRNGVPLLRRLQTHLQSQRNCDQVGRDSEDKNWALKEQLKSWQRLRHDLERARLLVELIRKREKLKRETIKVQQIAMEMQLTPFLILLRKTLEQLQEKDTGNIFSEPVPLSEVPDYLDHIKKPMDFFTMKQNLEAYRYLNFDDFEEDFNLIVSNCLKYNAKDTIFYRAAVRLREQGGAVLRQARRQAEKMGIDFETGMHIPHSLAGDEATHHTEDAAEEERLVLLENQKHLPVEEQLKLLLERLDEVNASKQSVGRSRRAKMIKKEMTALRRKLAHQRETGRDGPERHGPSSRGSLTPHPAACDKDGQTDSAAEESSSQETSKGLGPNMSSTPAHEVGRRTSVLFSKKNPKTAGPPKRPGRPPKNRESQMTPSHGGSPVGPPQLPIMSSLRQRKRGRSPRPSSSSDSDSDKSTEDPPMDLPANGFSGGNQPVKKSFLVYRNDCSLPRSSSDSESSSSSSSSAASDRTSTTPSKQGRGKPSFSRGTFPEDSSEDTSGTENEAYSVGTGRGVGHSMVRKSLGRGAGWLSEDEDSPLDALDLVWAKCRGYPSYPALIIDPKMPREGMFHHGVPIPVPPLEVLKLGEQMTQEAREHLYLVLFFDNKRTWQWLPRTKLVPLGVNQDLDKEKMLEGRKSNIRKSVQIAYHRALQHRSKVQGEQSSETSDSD

Chain of AAK1 (Q2M2I8 whole entry): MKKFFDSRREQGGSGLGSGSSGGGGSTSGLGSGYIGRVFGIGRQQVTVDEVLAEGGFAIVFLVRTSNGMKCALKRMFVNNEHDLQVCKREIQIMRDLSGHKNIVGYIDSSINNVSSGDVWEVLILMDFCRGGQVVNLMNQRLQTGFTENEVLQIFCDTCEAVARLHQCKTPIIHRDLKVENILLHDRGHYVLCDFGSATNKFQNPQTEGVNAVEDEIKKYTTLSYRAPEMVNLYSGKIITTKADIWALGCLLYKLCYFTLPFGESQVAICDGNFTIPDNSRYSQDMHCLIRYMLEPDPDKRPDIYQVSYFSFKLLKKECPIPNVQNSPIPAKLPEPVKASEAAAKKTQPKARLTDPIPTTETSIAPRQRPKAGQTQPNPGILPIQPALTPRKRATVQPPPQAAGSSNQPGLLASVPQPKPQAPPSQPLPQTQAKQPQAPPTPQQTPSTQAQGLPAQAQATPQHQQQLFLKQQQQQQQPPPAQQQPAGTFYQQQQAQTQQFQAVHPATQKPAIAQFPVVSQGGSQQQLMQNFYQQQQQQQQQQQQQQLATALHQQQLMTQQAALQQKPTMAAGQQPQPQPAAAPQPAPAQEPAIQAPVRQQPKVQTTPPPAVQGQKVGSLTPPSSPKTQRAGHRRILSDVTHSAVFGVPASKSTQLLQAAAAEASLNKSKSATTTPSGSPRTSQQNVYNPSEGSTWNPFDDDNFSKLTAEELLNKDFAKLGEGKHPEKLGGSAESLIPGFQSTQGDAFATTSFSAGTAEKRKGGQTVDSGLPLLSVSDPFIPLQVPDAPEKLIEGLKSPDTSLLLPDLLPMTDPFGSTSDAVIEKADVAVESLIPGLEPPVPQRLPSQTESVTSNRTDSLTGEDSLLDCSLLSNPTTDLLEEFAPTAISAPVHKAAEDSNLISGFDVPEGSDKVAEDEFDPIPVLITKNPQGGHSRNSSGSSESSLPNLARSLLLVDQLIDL
Chain of CK1d (P48730 whole entry): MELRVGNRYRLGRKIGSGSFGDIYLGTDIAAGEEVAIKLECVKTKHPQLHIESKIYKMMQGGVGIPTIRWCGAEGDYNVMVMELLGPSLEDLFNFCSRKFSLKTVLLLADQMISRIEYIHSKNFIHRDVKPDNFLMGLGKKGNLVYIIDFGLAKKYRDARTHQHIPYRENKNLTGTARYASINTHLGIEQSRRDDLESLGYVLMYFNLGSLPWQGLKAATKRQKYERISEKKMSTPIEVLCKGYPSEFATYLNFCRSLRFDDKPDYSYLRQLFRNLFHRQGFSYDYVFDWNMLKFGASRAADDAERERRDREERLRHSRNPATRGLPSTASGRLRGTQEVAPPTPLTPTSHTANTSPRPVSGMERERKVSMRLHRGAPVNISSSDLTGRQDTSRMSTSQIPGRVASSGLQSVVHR
Chain of MAPKAPK2 (P49137 whole entry): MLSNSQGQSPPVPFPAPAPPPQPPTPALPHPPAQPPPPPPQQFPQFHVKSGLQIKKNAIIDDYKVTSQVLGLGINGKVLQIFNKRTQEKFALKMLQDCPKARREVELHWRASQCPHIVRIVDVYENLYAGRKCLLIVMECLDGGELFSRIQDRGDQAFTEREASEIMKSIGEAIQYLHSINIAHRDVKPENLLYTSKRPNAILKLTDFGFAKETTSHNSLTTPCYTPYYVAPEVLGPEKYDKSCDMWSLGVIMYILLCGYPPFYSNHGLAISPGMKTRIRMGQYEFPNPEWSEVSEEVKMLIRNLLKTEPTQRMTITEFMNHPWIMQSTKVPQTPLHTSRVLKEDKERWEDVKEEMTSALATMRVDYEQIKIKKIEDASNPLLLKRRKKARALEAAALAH
Chain of ABL1 (P00519 whole entry): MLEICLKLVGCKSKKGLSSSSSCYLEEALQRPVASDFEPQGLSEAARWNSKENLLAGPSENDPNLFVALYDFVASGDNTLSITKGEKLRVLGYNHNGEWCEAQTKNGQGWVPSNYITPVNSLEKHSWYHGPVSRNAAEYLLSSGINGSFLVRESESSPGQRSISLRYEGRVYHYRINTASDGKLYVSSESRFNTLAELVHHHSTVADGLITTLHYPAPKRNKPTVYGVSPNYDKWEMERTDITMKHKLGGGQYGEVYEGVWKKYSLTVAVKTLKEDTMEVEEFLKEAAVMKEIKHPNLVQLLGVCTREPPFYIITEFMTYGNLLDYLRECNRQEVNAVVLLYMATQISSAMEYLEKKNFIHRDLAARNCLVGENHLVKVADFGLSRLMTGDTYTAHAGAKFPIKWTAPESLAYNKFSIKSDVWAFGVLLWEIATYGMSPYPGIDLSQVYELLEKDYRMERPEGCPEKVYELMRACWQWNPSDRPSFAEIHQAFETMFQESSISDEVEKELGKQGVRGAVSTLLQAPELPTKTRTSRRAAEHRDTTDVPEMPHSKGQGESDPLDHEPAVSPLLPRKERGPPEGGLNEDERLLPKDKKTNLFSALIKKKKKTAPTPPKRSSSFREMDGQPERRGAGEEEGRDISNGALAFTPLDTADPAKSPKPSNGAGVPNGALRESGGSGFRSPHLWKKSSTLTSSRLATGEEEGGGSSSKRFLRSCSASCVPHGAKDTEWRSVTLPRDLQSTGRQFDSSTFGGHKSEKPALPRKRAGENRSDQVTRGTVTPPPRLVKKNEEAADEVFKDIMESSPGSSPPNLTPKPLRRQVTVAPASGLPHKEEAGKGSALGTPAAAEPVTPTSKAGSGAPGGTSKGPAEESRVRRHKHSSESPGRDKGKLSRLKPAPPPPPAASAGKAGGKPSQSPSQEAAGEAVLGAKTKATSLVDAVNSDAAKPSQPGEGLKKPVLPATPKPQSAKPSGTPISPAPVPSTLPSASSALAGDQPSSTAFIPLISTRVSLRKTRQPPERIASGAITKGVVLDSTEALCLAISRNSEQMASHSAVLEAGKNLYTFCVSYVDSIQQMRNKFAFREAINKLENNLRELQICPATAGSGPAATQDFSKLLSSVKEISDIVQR
Chain of MSK1b (O75582 whole entry): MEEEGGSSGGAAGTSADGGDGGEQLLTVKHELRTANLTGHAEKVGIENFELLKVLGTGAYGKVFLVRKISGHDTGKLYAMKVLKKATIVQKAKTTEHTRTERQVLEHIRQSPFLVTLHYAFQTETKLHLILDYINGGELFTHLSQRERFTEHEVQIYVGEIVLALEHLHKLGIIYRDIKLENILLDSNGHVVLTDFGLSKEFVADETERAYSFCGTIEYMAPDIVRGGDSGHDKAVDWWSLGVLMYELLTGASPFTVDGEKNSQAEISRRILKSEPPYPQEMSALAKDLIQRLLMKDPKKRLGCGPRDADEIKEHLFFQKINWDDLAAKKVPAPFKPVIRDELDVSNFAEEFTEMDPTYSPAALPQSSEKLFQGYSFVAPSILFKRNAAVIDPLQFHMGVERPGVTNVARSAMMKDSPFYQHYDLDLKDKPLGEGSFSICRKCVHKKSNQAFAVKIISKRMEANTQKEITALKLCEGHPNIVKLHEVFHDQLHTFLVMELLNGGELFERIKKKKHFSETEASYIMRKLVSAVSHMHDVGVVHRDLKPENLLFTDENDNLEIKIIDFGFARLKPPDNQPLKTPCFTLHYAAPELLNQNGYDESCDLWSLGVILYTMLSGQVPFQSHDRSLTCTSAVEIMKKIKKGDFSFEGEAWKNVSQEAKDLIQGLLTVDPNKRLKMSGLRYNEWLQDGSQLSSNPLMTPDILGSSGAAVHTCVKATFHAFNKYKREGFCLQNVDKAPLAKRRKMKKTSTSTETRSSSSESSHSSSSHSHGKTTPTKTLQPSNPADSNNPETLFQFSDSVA
Chain of MSSK1 (Q9UPE1 whole entry): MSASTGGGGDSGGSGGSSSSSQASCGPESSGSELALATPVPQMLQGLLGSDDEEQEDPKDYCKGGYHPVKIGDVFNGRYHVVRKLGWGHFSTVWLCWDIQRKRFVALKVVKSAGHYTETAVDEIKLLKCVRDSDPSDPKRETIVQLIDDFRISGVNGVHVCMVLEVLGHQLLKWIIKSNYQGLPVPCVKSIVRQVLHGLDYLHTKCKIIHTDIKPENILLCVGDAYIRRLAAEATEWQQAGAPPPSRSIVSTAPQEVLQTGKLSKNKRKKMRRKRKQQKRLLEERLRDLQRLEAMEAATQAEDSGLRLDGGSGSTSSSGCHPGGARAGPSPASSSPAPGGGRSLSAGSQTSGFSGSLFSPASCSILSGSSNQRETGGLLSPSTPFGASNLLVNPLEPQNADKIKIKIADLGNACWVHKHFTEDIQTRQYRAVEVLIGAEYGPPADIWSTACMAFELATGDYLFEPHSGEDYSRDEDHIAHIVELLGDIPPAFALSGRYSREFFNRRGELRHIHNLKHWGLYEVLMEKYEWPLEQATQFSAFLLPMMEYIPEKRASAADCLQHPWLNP
Chain of CHK2 (O96017 whole entry): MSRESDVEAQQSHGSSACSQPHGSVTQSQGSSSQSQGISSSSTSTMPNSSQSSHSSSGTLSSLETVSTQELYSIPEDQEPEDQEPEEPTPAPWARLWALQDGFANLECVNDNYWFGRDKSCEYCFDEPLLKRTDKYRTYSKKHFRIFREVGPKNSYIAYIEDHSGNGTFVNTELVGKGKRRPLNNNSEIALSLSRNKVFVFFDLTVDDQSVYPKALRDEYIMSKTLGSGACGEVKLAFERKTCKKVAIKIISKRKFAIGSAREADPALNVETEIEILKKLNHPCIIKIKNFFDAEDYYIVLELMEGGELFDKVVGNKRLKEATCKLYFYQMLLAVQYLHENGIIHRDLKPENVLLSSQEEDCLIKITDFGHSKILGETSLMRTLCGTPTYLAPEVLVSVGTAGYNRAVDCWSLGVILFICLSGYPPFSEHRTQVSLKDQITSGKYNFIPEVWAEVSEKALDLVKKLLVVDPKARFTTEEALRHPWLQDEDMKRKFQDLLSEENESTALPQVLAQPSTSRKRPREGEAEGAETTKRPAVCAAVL

## Cc1cccc(-c2ccc(-c3cc4cnc(NCCCN5CCNCC5)nc4n(CCCCN)c3=O)c(Cl)c2)n1 [compound 29, 8-(4-Aminobutyl)-6-(2-chloro-4-(6-methylpyridin-2-yl)phenyl)-2-((3-(piperazin-1-yl)propyl)amino)pyrido[2,3-d]pyrimidin-7(8H)-one]
CHK2
  ΔTm 29: 2.4 °C
FGFR2
  ΔTm 29: 1.7 °C
MSK1b
  ΔTm 29: 0.2 °C
AAK1
  ΔTm 29: 0.0 °C
ABL1
  ΔTm 29: 4.0 °C
CK1d
  ΔTm 29: 1.3 °C
MAPKAPK2
  ΔTm 29: -0.2 °C
MSSK1
  ΔTm 29: -0.3 °C
MAP2K7
  ΔTm 29: 1.4 °C
CaMK4
  ΔTm 29: 1.5 °C
BRPF1
  ΔTm 29: -1.2 °C

## Cc1cccc(-c2ccc(-c3cc4cnc(NCCCN5CCCC5=O)nc4n(CCCCN)c3=O)c(Cl)c2)n1 [compound 27, MR30]
CHK2
  ΔTm MR30 (27): 2.5 °C
FGFR2
  ΔTm MR30 (27): 1.0 °C
MSK1b
  ΔTm MR30 (27): -1.4 °C
AAK1
  ΔTm MR30 (27): -0.5 °C
ABL1
  ΔTm MR30 (27): 3.0 °C
CK1d
  ΔTm MR30 (27): 1.6 °C
MAPKAPK2
  ΔTm MR30 (27): -0.3 °C
MSSK1
  ΔTm MR30 (27): -0.4 °C
MAP2K7
  ΔTm MR30 (27): 2.6 °C
CaMK4
  ΔTm MR30 (27): 2.5 °C
BRPF1
  ΔTm MR30 (27): -1.8 °C

## Cc1cccc(-c2ccc(-c3cc4cnc(Nc5ccc(O)cc5)nc4n(CCCCN)c3=O)c(Cl)c2)n1 [compound 31, 8-(4-Aminobutyl)-6-(2-chloro-4-(6-methylpyridin-2-yl)phenyl)-2-((4-hydroxyphenyl)amino) pyrido[2,3-d]pyrimidin-7(8H)-one]
CHK2
  ΔTm 31: 11.2 °C
FGFR2
  ΔTm 31: 3.9 °C
MSK1b
  ΔTm 31: 4.3 °C
AAK1
  ΔTm 31: 4.0 °C
ABL1
  ΔTm 31: 10.6 °C
CK1d
  ΔTm 31: 2.8 °C
MAPKAPK2
  ΔTm 31: -0.1 °C
MSSK1
  ΔTm 31: 0.0 °C
MAP2K7
  ΔTm 31: 8.9 °C
CaMK4
  ΔTm 31: 5.0 °C
BRPF1
  ΔTm 31: -3.4 °C

## Cc1cccc(-c2ccc(-c3cc4cnc(Nc5ccc(CCCO)cc5)nc4n(CCCCN)c3=O)c(Cl)c2)n1 [compound 30, 8-(4-Aminobutyl)-6-(2-chloro-4-(6-methylpyridin-2-yl)phenyl)-2-((4-(3-hydroxypropyl)phenyl)amino)pyrido[2,3-d]pyrimidin-7(8H)-one]
CHK2
  ΔTm 30: 10.4 °C
FGFR2
  ΔTm 30: 3.9 °C
MSK1b
  ΔTm 30: 3.6 °C
AAK1
  ΔTm 30: 4.1 °C
ABL1
  ΔTm 30: 10.3 °C
CK1d
  ΔTm 30: 2.8 °C
MAPKAPK2
  ΔTm 30: -0.3 °C
MSSK1
  ΔTm 30: -0.2 °C
MAP2K7
  ΔTm 30: 6.2 °C
CaMK4
  ΔTm 30: 5.5 °C
BRPF1
  ΔTm 30: -4.4 °C

## Cc1cccc(-c2ccc(-c3cc4cnc(Nc5cc(C(F)(F)F)ccc5C)nc4n(CCCCN)c3=O)c(Cl)c2)n1 [compound 28, 8-(4-Aminobutyl)-6-(2-chloro-4-(6-methylpyridin-2-yl)phenyl)-2-((2-methyl-5-(trifluoromethyl)phenyl)amino)pyrido[2,3-d]pyrimidin-7(8H)-one]
CHK2
  ΔTm 28: 4.6 °C
FGFR2
  ΔTm 28: 3.8 °C
MSK1b
  ΔTm 28: 1.4 °C
AAK1
  ΔTm 28: -0.1 °C
ABL1
  ΔTm 28: 6.9 °C
CK1d
  ΔTm 28: 1.4 °C
MAPKAPK2
  ΔTm 28: -0.2 °C
MSSK1
  ΔTm 28: -0.9 °C
MAP2K7
  ΔTm 28: 2.9 °C
CaMK4
  ΔTm 28: 3.9 °C
BRPF1
  ΔTm 28: -1.6 °C

## Cc1cccc(-c2ccc(-c3cc4cnc(Nc5ccc(C)c(O)c5)nc4n(CCCCN)c3=O)c(Cl)c2)n1 [compound 32, 8-(4-Aminobutyl)-6-(2-chloro-4-(6-methylpyridin-2-yl)phenyl)-2-((3-hydroxy-4-methylphenyl)amino)pyrido[2,3-d]pyrimidin-7(8H)-one]
CHK2
  ΔTm 32: 11.0 °C
FGFR2
  ΔTm 32: 4.2 °C
MSK1b
  ΔTm 32: 4.6 °C
AAK1
  ΔTm 32: 4.0 °C
ABL1
  ΔTm 32: 10.8 °C
CK1d
  ΔTm 32: 2.3 °C
MAPKAPK2
  ΔTm 32: -0.1 °C
MSSK1
  ΔTm 32: -0.2 °C
MAP2K7
  ΔTm 32: 7.3 °C
CaMK4
  ΔTm 32: 4.9 °C
BRPF1
  ΔTm 32: -1.4 °C
